This is an account of results in patent publication US10457655B2, “Compounds and compositions for inhibition of FASN” (FORMA Therapeutics, Inc., priority 2013, dated 2019).

Structures are written as SMILES.

For this test, the target named is FASN enzyme (Homo sapiens, UniProt P49327). As to the kind of experiment: Enzymatic Assay for FASN Inhibitors. Type of test: biochemical. The gist of the method: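 40 nM FASN preincubated with compound 60 min at 25° C in HEPES pH 7.3 buffer with 0.04% Triton X-100. Then 20 μM acetyl-CoA, 60 μM malonyl-CoA and 100 μM NADPH added for 90 min, quenched with CPM thiol probe; fluorescence 360/530 nm, IC50 by four-parameter fit.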
FASN enzyme, sequence (P49327 whole entry): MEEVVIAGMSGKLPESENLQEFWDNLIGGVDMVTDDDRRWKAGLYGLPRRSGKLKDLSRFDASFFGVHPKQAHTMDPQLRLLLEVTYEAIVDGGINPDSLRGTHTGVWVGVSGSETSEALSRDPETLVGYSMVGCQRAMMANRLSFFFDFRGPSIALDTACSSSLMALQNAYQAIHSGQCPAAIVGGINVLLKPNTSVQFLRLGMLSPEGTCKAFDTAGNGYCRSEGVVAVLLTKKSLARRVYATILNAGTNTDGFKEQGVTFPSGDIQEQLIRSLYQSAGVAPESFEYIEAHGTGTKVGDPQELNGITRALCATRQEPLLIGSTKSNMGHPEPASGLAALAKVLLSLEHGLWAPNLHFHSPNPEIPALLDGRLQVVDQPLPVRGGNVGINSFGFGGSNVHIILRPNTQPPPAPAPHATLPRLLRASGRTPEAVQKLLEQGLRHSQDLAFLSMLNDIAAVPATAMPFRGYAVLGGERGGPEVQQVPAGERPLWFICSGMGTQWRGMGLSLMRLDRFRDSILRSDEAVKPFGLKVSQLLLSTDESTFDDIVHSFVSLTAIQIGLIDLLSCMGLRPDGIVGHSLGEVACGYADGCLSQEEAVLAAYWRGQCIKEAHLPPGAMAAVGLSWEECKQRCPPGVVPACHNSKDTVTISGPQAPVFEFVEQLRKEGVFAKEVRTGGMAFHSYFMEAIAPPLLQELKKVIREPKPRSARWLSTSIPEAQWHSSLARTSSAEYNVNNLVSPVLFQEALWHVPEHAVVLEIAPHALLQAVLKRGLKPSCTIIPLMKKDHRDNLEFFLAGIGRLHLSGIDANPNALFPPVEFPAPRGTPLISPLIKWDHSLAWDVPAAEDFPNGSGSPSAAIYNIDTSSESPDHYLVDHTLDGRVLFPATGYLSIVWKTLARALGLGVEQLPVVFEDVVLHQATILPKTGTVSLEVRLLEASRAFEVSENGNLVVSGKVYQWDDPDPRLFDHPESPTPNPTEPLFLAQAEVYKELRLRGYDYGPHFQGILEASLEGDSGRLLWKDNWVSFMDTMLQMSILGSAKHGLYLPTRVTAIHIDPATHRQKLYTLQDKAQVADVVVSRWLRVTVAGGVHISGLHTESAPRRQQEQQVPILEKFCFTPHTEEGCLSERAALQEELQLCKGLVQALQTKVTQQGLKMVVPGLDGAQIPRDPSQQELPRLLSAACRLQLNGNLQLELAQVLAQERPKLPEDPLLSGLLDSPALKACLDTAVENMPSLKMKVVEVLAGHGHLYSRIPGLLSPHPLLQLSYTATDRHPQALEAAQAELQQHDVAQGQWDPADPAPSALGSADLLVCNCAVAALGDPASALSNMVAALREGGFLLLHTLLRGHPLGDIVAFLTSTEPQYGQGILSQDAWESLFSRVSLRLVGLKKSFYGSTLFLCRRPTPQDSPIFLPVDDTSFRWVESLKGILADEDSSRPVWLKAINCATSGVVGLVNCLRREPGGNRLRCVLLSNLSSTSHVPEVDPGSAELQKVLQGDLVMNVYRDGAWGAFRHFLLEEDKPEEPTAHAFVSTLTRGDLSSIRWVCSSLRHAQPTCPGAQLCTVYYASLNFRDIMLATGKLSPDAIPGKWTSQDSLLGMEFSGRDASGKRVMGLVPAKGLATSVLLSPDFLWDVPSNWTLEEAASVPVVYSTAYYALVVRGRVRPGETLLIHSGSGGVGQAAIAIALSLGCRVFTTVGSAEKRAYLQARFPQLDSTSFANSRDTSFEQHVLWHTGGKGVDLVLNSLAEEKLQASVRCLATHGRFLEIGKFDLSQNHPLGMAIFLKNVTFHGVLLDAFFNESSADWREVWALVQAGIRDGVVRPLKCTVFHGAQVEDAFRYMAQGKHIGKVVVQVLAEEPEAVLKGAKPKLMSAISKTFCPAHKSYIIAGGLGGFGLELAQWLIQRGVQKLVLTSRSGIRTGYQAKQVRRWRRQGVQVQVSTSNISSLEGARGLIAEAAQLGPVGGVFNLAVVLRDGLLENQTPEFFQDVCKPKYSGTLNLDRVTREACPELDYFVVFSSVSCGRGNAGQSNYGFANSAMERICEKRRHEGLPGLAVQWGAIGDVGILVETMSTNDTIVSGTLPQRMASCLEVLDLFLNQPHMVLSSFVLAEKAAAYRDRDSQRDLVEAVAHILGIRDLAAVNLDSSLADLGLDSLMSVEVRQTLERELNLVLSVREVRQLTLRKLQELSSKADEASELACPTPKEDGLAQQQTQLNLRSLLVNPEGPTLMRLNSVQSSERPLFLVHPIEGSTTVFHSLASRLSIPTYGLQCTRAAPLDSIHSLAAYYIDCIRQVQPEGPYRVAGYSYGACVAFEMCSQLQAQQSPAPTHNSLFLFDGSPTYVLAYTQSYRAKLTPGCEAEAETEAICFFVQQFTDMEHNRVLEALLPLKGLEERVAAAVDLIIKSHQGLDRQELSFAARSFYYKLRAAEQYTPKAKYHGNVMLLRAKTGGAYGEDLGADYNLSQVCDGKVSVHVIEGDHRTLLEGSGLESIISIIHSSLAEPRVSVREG
Broadly, the IC50 is the midpoint of a concentration-inhibition curve. A lower IC50 goes with inhibition by little substance. Consider `Cn1ncc2ccc(-c3ccc(C(=O)N4CCN(C(=O)C5(N)CCC5)CC4)c(F)c3)cc21` [1-{4-[2-fluoro-4-(1-methyl-1H-indazol-6-yl)benzoyl]piperazine-1-carbonyl}cyclobutan-1-amine], for which the IC50 is less than 500 nM.

With `Cn1ncc2ccc(-c3ccc(C(=O)N4CCN(C(=O)C5(N)CC5)CC4)c(F)c3)cc21` [1-{4-[2-fluoro-4-(1-methyl-1H-indazol-6-yl)benzoyl]piperazine-1-carbonyl}cyclopropan-1-amine], the IC50 is less than 500 nM.

`Cn1ncc2ccc(-c3ccc(C(=O)N4CCN(C(=O)C5(O)CC5)CC4)c(F)c3)cc21` [1-{4-[2-fluoro-4-(1-methyl-1H-indazol-6-yl)benzoyl]piperazine-1-carbonyl}cyclopropan-1-ol] yielded an IC50 of less than 500 nM.

With `Cc1cc2ccccc2n1-c1ccc(C(=O)N2CCN(C(=O)C3(N)CC3)CC2)c(F)c1` [1-{4-[2-fluoro-4-(2-methyl-1H-indol-1-yl)benzoyl]piperazine-1-carbonyl}cyclopropan-1-amine], the IC50 is less than 500 nM.

For the compound `Cc1cc2ccccc2n1-c1ccc(C(=O)N2CCN(C(=O)C3(O)CC3)CC2)c(F)c1` [1-{4-[2-fluoro-4-(2-methyl-1H-indol-1-yl)benzoyl]piperazine-1-carbonyl}cyclopropan-1-ol], the IC50 was less than 500 nM.

The compound `Cn1cc2ccc(-c3ccc(C(=O)N4CCN(C(=O)C5(N)CCC5)CC4)c(F)c3)cc2n1` [1-{4-[2-fluoro-4-(2-methyl-2H-indazol-6-yl)benzoyl]piperazine-1-carbonyl}cyclobutan-1-amine] registered an IC50 of less than 500 nM.

Regarding `Cn1cc2ccc(-c3ccc(C(=O)N4CCN(C(=O)C5(N)CC5)CC4)c(F)c3)cc2n1` [1-{4-[2-fluoro-4-(2-methyl-2H-indazol-6-yl)benzoyl]piperazine-1-carbonyl}cyclopropan-1-amine], the IC50 is less than 500 nM.

`Cc1n[nH]c2c(-c3ccc(C(=O)N4CCN(C(=O)C5(N)CC5)CC4)c(F)c3)cccc12` [1-{4-[2-fluoro-4-(3-methyl-1H-indazol-7-yl)benzoyl]piperazine-1-carbonyl}cyclopropan-1-amine] yielded a 50% inhibitory concentration (IC50) of less than 500 nM.

Compound `Cc1n[nH]c2c(-c3ccc(C(=O)N4CCN(C(=O)C5(O)CC5)CC4)c(F)c3)cccc12` [1-{4-[2-fluoro-4-(3-methyl-1H-indazol-7-yl)benzoyl]piperazine-1-carbonyl}cyclopropan-1-ol] gave a half-inhibitory concentration (IC50) of less than 500 nM.

With `O=C(c1ccc(N2CCc3cccnc3C2)cc1F)N1CCN(C(=O)C2(O)CC2)CC1` [1-{4-[2-fluoro-4-(5,6,7,8-tetrahydro-1,7-naphthyridin-7-yl)benzoyl]piperazine-1-carbonyl}cyclopropan-1-ol], the half-inhibitory concentration (IC50) was less than 500 nM.

For the compound `O=C(c1ccc(-c2nc3ccc(F)cc3o2)cc1F)N1CCN(C(=O)C2(O)CC2)CC1` [1-{4-[2-fluoro-4-(6-fluoro-1,3-benzoxazol-2-yl)benzoyl]piperazine-1-carbonyl}cyclopropan-1-ol], the half-maximal inhibitory concentration (IC50) is less than 500 nM.

For `O=C(c1ccc(-c2n[nH]c3c(F)cccc23)cc1F)N1CCN(C(=O)C2(O)CC2)CC1` [1-{4-[2-fluoro-4-(7-fluoro-1H-indazol-3-yl)benzoyl]piperazine-1-carbonyl}cyclopropan-1-ol], the concentration for half-maximal inhibition (IC50) is less than 500 nM.

`Cc1nn(C)c2ccc(-c3ccc(C(=O)N4CCN(C(=O)C5(O)CC5)CC4)cc3Cl)cc12` [1-{4-[3-chloro-4-(1,3-dimethyl-1H-indazol-5-yl)benzoyl]piperazine-1-carbonyl}cyclopropan-1-ol] displayed an IC50 of less than 500 nM.

`Cn1cnc2cc(-c3ccc(C(=O)N4CCN(C(=O)C5(O)CC5)CC4)cc3Cl)ccc21` [1-{4-[3-chloro-4-(1-methyl-1H-1,3-benzodiazol-5-yl)benzoyl]piperazine-1-carbonyl}cyclopropan-1-ol] came in with a concentration for half-maximal inhibition (IC50) of less than 500 nM.

The compound `Cn1ncc2ccc(-c3ccc(C(=O)N4CCN(C(=O)C5(O)CC5)CC4)cc3Cl)cc21` [1-{4-[3-chloro-4-(1-methyl-1H-indazol-6-yl)benzoyl]piperazine-1-carbonyl}cyclopropan-1-ol] showed an IC50 of less than 500 nM.

Compound `Cn1cc2ccc(-c3ccc(C(=O)N4CCN(C(=O)C5(O)CC5)CC4)cc3Cl)cc2n1` [1-{4-[3-chloro-4-(2-methyl-2H-indazol-6-yl)benzoyl]piperazine-1-carbonyl}cyclopropan-1-ol] displayed a half-maximal inhibitory concentration (IC50) of less than 500 nM.

For the compound `O=C(c1ccc(-c2ccc(Cl)cc2F)c(Cl)c1)N1CCN(C(=O)C2(O)CC2)CC1` [1-{4-[3-chloro-4-(4-chloro-2-fluorophenyl)benzoyl]piperazine-1-carbonyl}cyclopropan-1-ol], the IC50 was less than 500 nM.

`O=C(c1ccc(-c2cc(Cl)ccc2F)c(Cl)c1)N1CCN(C(=O)C2(O)CC2)CC1` [1-{4-[3-chloro-4-(5-chloro-2-fluorophenyl)benzoyl]piperazine-1-carbonyl}cyclopropan-1-ol]: the half-inhibitory concentration (IC50) is less than 500 nM.

`O=C(c1ccc(-c2nc3ccc(Cl)cc3o2)c(Cl)c1)N1CCN(C(=O)C2(O)CC2)CC1` [1-{4-[3-chloro-4-(6-chloro-1,3-benzoxazol-2-yl)benzoyl]piperazine-1-carbonyl}cyclopropan-1-ol] displayed an IC50 of less than 500 nM.

`O=C(c1ccc(-c2nc3ccc(F)cc3o2)c(Cl)c1)N1CCN(C(=O)C2(O)CC2)CC1` [1-{4-[3-chloro-4-(6-fluoro-1,3-benzoxazol-2-yl)benzoyl]piperazine-1-carbonyl}cyclopropan-1-ol]: the IC50 was less than 500 nM.

As for `Cn1cnc2cc(-c3ccc(C(=O)N4CCN(C(=O)C5(O)CC5)CC4)cc3F)ccc21` [1-{4-[3-fluoro-4-(1-methyl-1H-1,3-benzodiazol-5-yl)benzoyl]piperazine-1-carbonyl}cyclopropan-1-ol], the concentration for half-maximal inhibition (IC50) was less than 500 nM.

Turning to `Cn1ncc2ccc(-c3ccc(C(=O)N4CCN(C(=O)C5(O)CC5)CC4)cc3F)cc21` [1-{4-[3-fluoro-4-(1-methyl-1H-indazol-6-yl)benzoyl]piperazine-1-carbonyl}cyclopropan-1-ol], the IC50 was less than 500 nM.

As for `Cn1cc2ccc(-c3ccc(C(=O)N4CCN(C(=O)C5(O)CC5)CC4)cc3F)cc2n1` [1-{4-[3-fluoro-4-(2-methyl-2H-indazol-6-yl)benzoyl]piperazine-1-carbonyl}cyclopropan-1-ol], the half-maximal inhibitory concentration (IC50) is less than 500 nM.

`O=C(c1ccc(-c2nc3ccc(F)cc3o2)c(F)c1)N1CCN(C(=O)C2(O)CC2)CC1` [1-{4-[3-fluoro-4-(6-fluoro-1,3-benzoxazol-2-yl)benzoyl]piperazine-1-carbonyl}cyclopropan-1-ol] yielded an IC50 of less than 500 nM.

Compound `O=C(c1ccc(N2CCc3ccccc3C2)cc1)N1CCN(C(=O)C2(O)CC2)CC1` [1-{4-[4-(1,2,3,4-tetrahydroisoquinolin-2-yl)benzoyl]piperazine-1-carbonyl}cyclopropan-1-ol] showed a half-maximal inhibitory concentration (IC50) of less than 500 nM.

Take `Cc1nn(C)c2ccc(-c3ccc(C(=O)N4CCN(C(=O)C5(N)CCC5)CC4)c(F)c3)cc12` [1-{4-[4-(1,3-dimethyl-1H-indazol-5-yl)-2-fluorobenzoyl]piperazine-1-carbonyl}cyclobutan-1-amine]: the half-maximal inhibitory concentration (IC50) was less than 500 nM.

Turning to `Cc1nn(C)c2ccc(-c3ccc(C(=O)N4CCN(C(=O)C5(N)CC5)CC4)c(F)c3)cc12` [1-{4-[4-(1,3-dimethyl-1H-indazol-5-yl)-2-fluorobenzoyl]piperazine-1-carbonyl}cyclopropan-1-amine], the half-maximal inhibitory concentration (IC50) was less than 500 nM.

Turning to `Cc1nn(C)c2ccc(-c3ccc(C(=O)N4CCN(C(=O)C5(O)CC5)CC4)c(F)c3)cc12` [1-{4-[4-(1,3-dimethyl-1H-indazol-5-yl)-2-fluorobenzoyl]piperazine-1-carbonyl}cyclopropan-1-ol], the IC50 was less than 500 nM.

Take `Cc1nn(C)c2ccc(-c3ccc(C(=O)N4CCN(C(=O)C5(O)CC5)CC4)cc3F)cc12` [1-{4-[4-(1,3-dimethyl-1H-indazol-5-yl)-3-fluorobenzoyl]piperazine-1-carbonyl}cyclopropan-1-ol]: the half-maximal inhibitory concentration (IC50) was less than 500 nM.

Consider `Cc1nn(C)c2ccc(-c3ccc(C(=O)N4CCN(C(=O)C5(N)CCC5)CC4)cc3)cc12` [1-{4-[4-(1,3-dimethyl-1H-indazol-5-yl)benzoyl]piperazine-1-carbonyl}cyclobutan-1-amine], for which the 50% inhibitory concentration (IC50) is less than 500 nM.

`O=C(c1ccc(-c2ccc3c(cnn3C3CC3)c2)cc1)N1CCN(C(=O)C2(O)CC2)CC1` [1-{4-[4-(1-cyclopropyl-1H-indazol-5-yl)benzoyl]piperazine-1-carbonyl}cyclopropan-1-ol] gave a concentration for half-maximal inhibition (IC50) of less than 500 nM.

`CS(=O)(=O)n1ccc2ccc(-c3ccc(C(=O)N4CCN(C(=O)C5(O)CC5)CC4)cc3)cc21` [1-{4-[4-(1-methanesulfonyl-1H-indol-6-yl)benzoyl]piperazine-1-carbonyl}cyclopropan-1-ol] returned an IC50 of less than 500 nM.

Consider `Cn1cnc2cc(-c3ccc(C(=O)N4CCN(C(=O)C5(O)CC5)CC45CC5)cc3)ccc21` [1-{4-[4-(1-methyl-1H-1,3-benzodiazol-5-yl)benzoyl]-4,7-diazaspiro[2.5]octane-7-carbonyl}cyclopropan-1-ol], for which the concentration for half-maximal inhibition (IC50) was less than 500 nM.

Take `Cn1cnc2cc(-c3ccc(C(=O)N4CCN(C(=O)C5(O)CCC5)CC4)cc3)ccc21` [1-{4-[4-(1-methyl-1H-1,3-benzodiazol-5-yl)benzoyl]piperazine-1-carbonyl}cyclobutan-1-ol]: the 50% inhibitory concentration (IC50) is less than 500 nM.

`Cn1cnc2cc(-c3ccc(C(=O)N4CCN(C(=O)C5(N)CC5)CC4)cc3)ccc21` [1-{4-[4-(1-methyl-1H-1,3-benzodiazol-5-yl)benzoyl]piperazine-1-carbonyl}cyclopropan-1-amine] gave an IC50 of less than 500 nM.

For the compound `Cn1ncc2ccc(-c3ccc(C(=O)N4CCN(C(=O)C5(N)CCC5)CC4)cc3)cc21` [1-{4-[4-(1-methyl-1H-indazol-6-yl)benzoyl]piperazine-1-carbonyl}cyclobutan-1-amine], the concentration for half-maximal inhibition (IC50) is less than 500 nM.

As to `O=C(c1ccc(-n2cnc3ccccc32)cc1)N1CCN(C(=O)C2(O)CC2)CC1` [1-{4-[4-(1H-1,3-benzodiazol-1-yl)benzoyl]piperazine-1-carbonyl}cyclopropan-1-ol], the IC50 was less than 500 nM.
